Laboratory results: patent US10577349B2 (Sanford Burnham Prebys Medical Discovery Institute, priority 2015, dated 2020)

Legend:
[1] = target: HCV cap-dependent translation; experiment: In vitro translation assay, FF-HCV-Ren construct, cap-dependent (FF luciferase); assay type: biochemical, rabbit reticulocyte lysates
Source text: (§1) The bicistronic dual-reporter constructs that contain the firefly luciferase (FF) sequence, followed by the (encephalomyocarditis virus) EmCV and Hepatitis C virus (HCV) IRES, respectively, and the Renilla reniformis (Ren) luciferase sequence, has been previously described (Bordeleau Me., et al. Functional characterization of IRESes by an inhibitor of the RNA helicase eIF4A. Nature chemical biology. 2006; 2:213-20). For measurement of translation from the FF-EmCV-Ren and FF-HCV-Ren constructs, rabbit reticulocyte lysates (RRL) (Life Technologies, Carlsbad, Calif., USA) and the Dual-Glo (Promega, Madison, Wis., USA) read-outs were chosen. Two μl rabbit reticulocyte lysates mixed with Translation Mix 20× (-Met) and Translation Mix 20× (-Leu) in a ratio of 1:1 were pre-incubated with test compounds in 1536-well plates for 1 h at room temperature. Then, translation was started by adding 0.1 μg RNA per well and incubated for 2 h at 30° C. After a short chill phase, 2.5 μl Dual-Glo reagent 1 was added to each well and incubated for 10 min before reading the FF luciferase activity with the ViewLux uHTS Microplate Imager (Perkin Elmer, Waltham, Mass., USA). Directly after, 2.5 μl Dual-Glo reagent 2 was dispensed to each well and incubated at room temperature for 10 min before reading the Ren luciferase activity on the ViewLux. To exclude the possibility that test compounds interfere with any of the luciferase activities, a counter assay was performed in which the compounds were added after the completion of the in vitro translation.

[2] = target: EmCV Cap-independent translation; experiment: In vitro translation assay, FF-EmCV-Ren construct, cap-independent (Ren luciferase); assay type: biochemical, rabbit reticulocyte lysates
Source text: as §1

[3] = target: EmCV Cap-dependent translation; experiment: In vitro translation assay, FF-EmCV-Ren construct, cap-dependent (FF luciferase); assay type: biochemical, rabbit reticulocyte lysates
Source text: as §1

[4] = target: HCV cap-independent translation; experiment: In vitro translation assay, FF-HCV-Ren construct, cap-independent (Ren luciferase); assay type: biochemical, rabbit reticulocyte lysates
Source text: as §1

[5] = system: A375; experiment: 48 h Cytotoxicity A375; assay type: cell-based; details: Homo sapiens, A-375

Row | SMILES | IC50 [1] [µM] | IC50 [2] [µM] | IC50 [3] [µM] | IC50 [4] [µM] | IC50 [5] [nM]
1 | CN(C)c1ccc(/C=C/C(=O)c2c(-c3ccccc3)c3cc([N+](=O)[O-])ccc3[nH]c2=O)cc1 [Compound 17, 3-[3-(4-Dimethylamino-phenyl)-acryloyl]-6-nitro-4-phenyl-1H-quinolin-2-one] | > 20 | > 20 | > 20 | > 20 | > 20000
2 | O=C(/C=C/c1cncc(F)c1)c1c(-c2ccc(F)cc2)c2cc(Cl)ccc2[nH]c1=O [Compound 77, 3-[(2E)-3-(5-fluoro(3-pyridyl))prop-2-enoyl]-6-chloro-4-(4-fluorophenyl)hydroquinolin-2-one] | 2 to 10 | 2 to 10 | 2 to 10 | 2 to 10 | < 2000
3 | CN(C)c1ccc(-c2c(C(=O)/C=C/c3ccccn3)c(=O)[nH]c3ccc(Cl)cc23)cc1 [Compound 108, 3-((2E)-3-(2-pyridyl)prop-2-enoyl)-4-[4-(dimethylamino)phenyl]-6-chlorohydroquinolin-2-one] | 10 to 20 | 2 to 10 | 2 to 10 | 2 to 10 | 2000 to 10000
4 | COc1ccc(-c2c(C(=O)/C=C/c3nc4ccccc4[nH]3)c(=O)[nH]c3ccc(Cl)cc23)cc1 [Compound 3, 3-(3-1H-Benzoimidazol-2-yl-acryloyl)-6-chloro-4-(4-methoxy-phenyl)-1H-quinolin-2-one] | 10 to 20 | > 20 | 10 to 20 | > 20 | < 2000
5 | O=C(/C=C/c1cncc(F)c1)c1c(-c2ccc(Cl)cc2)c2cc(Cl)ccc2[nH]c1=O [Compound 81, 3-[(2E)-3-(5-fluoro(3-pyridyl))prop-2-enoyl]-6-chloro-4-(4-chlorophenyl)hydroquinolin-2-one] | 2 to 10 | 2 to 10 | 2 to 10 | 2 to 10 | 2000 to 10000
6 | O=C(/C=C/c1ccccc1)c1c(-c2ccccc2)c2cc(Cl)ccc2[nH]c1=O [Compound 31, 6-Chloro-4-phenyl-3-(3-phenyl-acryloyl)-1H-quinolin-2-one] | 2 to 10 | 2 to 10 | 2 to 10 | 2 to 10 | 2000 to 10000
7 | COCCn1c(/C=C/C(=O)c2c(-c3ccccc3)c3cc(Cl)ccc3[nH]c2=O)nc2ccccc21 [Compound 57, 6-Chloro-3-{3-[1-(2-methoxy-ethyl)-1H-benzoimidazol-2-yl]-acryloyl}-4-phenyl-1H-quinolin-2-one] | 2 to 10 | 2 to 10 | 2 to 10 | 2 to 10 | 2000 to 10000
8 | O=C(/C=C/c1nc2ccccc2n1Cc1ccccc1)c1c(-c2ccccc2)c2cc(Cl)ccc2n(Cc2ccccc2)c1=O [Compound 56, 1-benzyl-3-[3-(1-benzyl-1H-benzoimidazol-2-yl)-acryloyl]-6-chloro-4-phenyl-1H-quinolin-2-one] | 10 to 20 | > 20 | 2 to 10 | 2 to 10 | 2000 to 10000
9 | COc1ccc(/C=C/C(=O)c2c(-c3ccccc3)c3cc(Cl)ccc3[nH]c2=O)c(F)c1 [Compound 43, 6-Chloro-3-[3-(2-fluoro-4-methoxy-phenyl)-acryloyl]-4-phenyl-1H-quinolin-2-one] | 2 to 10 | > 20 | > 20 | 2 to 10 | < 2000
10 | O=C(/C=C/c1ccccc1)c1c(-c2ccccc2)c2cc([N+](=O)[O-])ccc2[nH]c1=O [Compound 16, 6-Nitro-4-phenyl-3-(3-phenyl-acryloyl)-1H-quinolin-2-one] | 10 to 20 | 2 to 10 | 2 to 10 | 2 to 10 | 2000 to 10000
11 | O=C(/C=C/c1cc(Br)cs1)c1c(-c2ccccc2)c2cc(Cl)ccc2[nH]c1=O [Compound 46, 3-[3-(4-Bromo-thiophen-2-yl)-acryloyl]-6-chloro-4-phenyl-1H-quinolin-2-one] | 2 to 10 | 2 to 10 | 2 to 10 | 2 to 10 | 2000 to 10000
12 | COc1ccc(-c2c(C(=O)/C=C/c3cncc(F)c3)c(=O)[nH]c3ccc(Cl)cc23)cc1 [Compound 79, 3-[(2E)-3-(5-fluoro(3-pyridyl))prop-2-enoyl]-6-chloro-4-(4-methoxyphenyl)hydroquinolin-2-one] | 2 to 10 | 2 to 10 | 2 to 10 | 2 to 10 | < 2000
13 | Cn1c(/C=C/C(=O)c2c(-c3ccccc3)c3cc(Cl)ccc3[nH]c2=O)nc2ccccc21 [Compound 53, 6-Chloro-3-[3-(1-methyl-1H-benzoimidazol-2-yl)-acryloyl]-4-phenyl-1H-quinolin-2-one] | 2 to 10 | 2 to 10 | 2 to 10 | 2 to 10 | 2000 to 10000
14 | CCn1c(/C=C/C(=O)c2c(-c3ccccc3)c3cc(Cl)ccc3[nH]c2=O)nc2ccccc21 [Compound 58, 6-Chloro-3-[3-(1-ethyl-1H-benzoimidazol-2-yl)-acryloyl]-4-phenyl-1H-quinolin-2-one] | 2 to 10 | 2 to 10 | 2 to 10 | 2 to 10 | 2000 to 10000
15 | COc1ccnc(/C=C/C(=O)c2c(-c3ccccc3)c3cc(Cl)ccc3[nH]c2=O)c1 [Compound 75, 3-[(2E)-3-(4-methoxy(2-pyridyl))prop-2-enoyl]-6-chloro-4-phenylhydroquinolin-2-one] | 2 to 10 | 2 to 10 | 2 to 10 | 2 to 10 | < 2000
16 | O=C(/C=C/c1cncc(F)c1)c1c(-c2ccc(Br)cc2)c2cc(Cl)ccc2[nH]c1=O [Compound 91, 3-[(2E)-3-(5-fluoro(3-pyridyl))prop-2-enoyl]-4-(4-bromophenyl)-6-chlorohydroquinolin-2-one] | 2 to 10 | 2 to 10 | 2 to 10 | 2 to 10 | 2000 to 10000
17 | COc1cncc(-c2c(C(=O)/C=C/c3cncc(F)c3)c(=O)[nH]c3ccc(Cl)cc23)c1 [Compound 97, 3-[(2E)-3-(5-fluoro(3-pyridyl))prop-2-enoyl]-6-chloro-4-(5-methoxy(3-pyridyl))hydroquinolin-2-one] | 10 to 20 | 2 to 10 | 2 to 10 | 2 to 10 | 2000 to 10000
18 | O=C(CCc1nc2ccccc2[nH]1)c1c(-c2ccccc2)c2cc(Cl)ccc2[nH]c1=O [Compound 68, 3-(3-1H-Benzoimidazol-2-yl-propionyl)-6-chloro-4-phenyl-1H-quinolin-2-one] | > 20 | > 20 | > 20 | > 20 | > 20000
19 | Cc1ccc(-c2c(C(=O)/C=C/c3ccccn3)c(=O)[nH]c3ccc(Cl)cc23)cc1 [Compound 86, 3-((2E)-3-(2-pyridyl)prop-2-enoyl)-6-chloro-4-(4-methylphenyl)hydroquinolin-2-one] | 2 to 10 | 2 to 10 | 2 to 10 | 2 to 10 | 2000 to 10000
20 | O=C(/C=C/c1nc2ccccc2[nH]1)c1c(-c2ccccc2)c2cc(F)ccc2[nH]c1=O [Compound 20, 3-(3-1H-Benzoimidazol-2-yl-acryoyl)-6-fluoro-4-phenyl-1H-quinolin-2-one] | 10 to 20 | > 20 | 10 to 20 | > 20 | < 2000
21 | O=C(/C=C/c1ccc(C(F)(F)F)cc1)c1c(-c2ccccc2)c2cc(Cl)ccc2[nH]c1=O [Compound 39, 6-Chloro-4-phenyl-3-[3-(4-trifluoromethyl-phenyl)-acryloyl]-1H-quinolin-2-one] | 10 to 20 | 2 to 10 | 2 to 10 | 10 to 20 | 2000 to 10000
22 | O=C(/C=C/c1cncc(F)c1)c1c(-c2cncc(F)c2)c2cc(Cl)ccc2[nH]c1=O [Compound 99, 3-[(2E)-3-(5-fluoro(3-pyridyl))prop-2-enoyl]-6-chloro-4-(5-fluoro(3-pyridyl))hydroquinolin-2-one] | 10 to 20 | 2 to 10 | 10 to 20 | 2 to 10 | 2000 to 10000
23 | O=C(/C=C/c1nc2ccccc2[nH]1)c1c(-c2ccccc2)c2cc(C(F)(F)F)ccc2[nH]c1=O [Compound 19, 3-(3-1H-Benzoimidazol-2-yl-acryloyl)-4-phenyl-6-trifluoromethyl-1H-quinolin-2-one] | 10 to 20 | 2 to 10 | 2 to 10 | 10 to 20 | 2000 to 10000
24 | CCn1c(/C=C/C(=O)c2c(-c3ccccc3)c3cc(Cl)ccc3n(CC)c2=O)nc2ccccc21 [Compound 60, (E)-6-chloro-1-ethyl-3-(3-(1-ethyl-1H-benzo[d]imidazol-2-yl)acryloyl)-4-phenylquinolin-2(1H)-one] | 10 to 20 | > 20 | > 20 | 10 to 20 | 2000 to 10000
